Assay results as given in US20240299353A1, “COMPOSITIONS AND METHODS FOR TREATING […] 5-MEO-DMT” (Alvarius Pharmaceuticals Ltd., priority 2021, published 2024).

Legend:
G9a [1] = settings: repeated cocaine; cited from earlier work
[2] = test system: MAO-A and cytochrome P450 2D6 (CYP2D6); settings: cited from earlier work
[3] = humans, following insufflation; cited from earlier work
G9a [4] = assay: Western blot of G9a in brain regions, chronic cocaine ± 5-MeO-DMT; type: in vivo, Male Wistar rats
Source text: (§1) Male Wistar rats aged 7 weeks were acclimatized to the facility for 1 week prior to the beginning of the study. […] Animals were euthanized 23- or 119-hours following vehicle or 5-MeO-DMT administration.
(§2) Following euthanasia brain regions of interest were isolated. Briefly, the olfactory bulbs were removed before the brain was placed in a rat brain matrix (FIG. 2A). Sterile blades were inserted at positions 2 and 3 (FIG. 2B) to extract a coronal slice containing the Bregma+˜0.2-+˜2.2 coordinates (FIG. 2C). From this tissue slice a blunted 12 G needle was used to punch dissect the NAc and dorsal striatum (DS) (FIG. 2D-2E) identified using the rat brain atlas (Panxinos and Watson 2nd edition). The PFC, hippocampus (Hip) and amygdala (Amyg) were then blunt dissected (FIG. 3A-3D). All regions were frozen in liquid nitrogen and stored at −80° C. until processed.
(§3) These treatment groups were used for the molecular assessment of addiction-linked markers.
(§4) Determination of protein concentration—a bicinchoninic acid assay (BCA, ThermoFisher) was conducted to determine the total protein concentration in tissue lysates following manufacturer's instructions. Briefly, bovine serum albumin (BSA) standards were prepared in a serial dilution (0-2.0 mg protein/ml) and 200 μl working reagent (50:1, reagent A: reagent B) was added to each of the standards and samples in a 96 well plate (Greiner). For tissue lysates a 1:10 dilution was performed with cell lysis buffer to ensure absorbance values lay within the working range established by the standards. All samples and standards were added in duplicate. The plate was covered and incubated for 30 mins at 37° C. before absorbance was read at 562 nm on a plate reader (SpectraMax M3). The absorbance values were used to form a standard curve of known protein concentrations and protein concentration of samples were derived using the equation of the line. All samples were standardized to the lowest protein concentration using distilled H20 (dH2O).
(§5) SDS-PAGE and Western Blotting—Following equalisation of protein concentrations, 6× sample loading buffer (15% SDS, 15% […], 50% glycerol, 0.01% bromophenol blue, […]) was added to each sample using a dilution factor of 1:5 of the total volumes before boiling at 100° C. for 5 mins. Samples were stored at −20° C. until use. One dimensional sodium-dodecyl-sulphate polyacrylamide gel electrophoresis (SDS-PAGE) was used for protein separation based on molecular weight. The percentage of acrylamide in the resolving or stacking gel was determined by the molecular weight of the protein of interest. In this instance all gels consisted of a 5% stacking gel and a 10% resolving gel with the exception of mGluR5, G9a (8%) and H3K9Me2 (12%). 20 μg of protein was loaded and resolved using SDS-PAGE. Gel electrophoresis was conducted at 80V while the protein was in the stacking gel, once it migrated to the resolving gel the voltage was increased to 120V and ran for 90 mins. Samples were transferred to a 0.45 μm polyvinylidene difluoride (PVDF) membrane (Analab) for 1 hour at 100V and blocked in 5% milk blocking solution made in tris-buffered saline containing tween®-20 (TBS-T, Sigma) for 90 mins. Primary antibodies (FIG. 5) were diluted in 5% BSA in TBS-T and incubated with membranes overnight at 4° C. or for 2 hours at room temperature. After incubation with primary antibodies the membranes were washed in TBS-T for 4×10 minutes before incubation with 1:2000 anti-rabbit and 1:2000 anti-mouse Alexa Fluro® conjugated secondary antibodies (Invitrogen) in 2% milk for 1 hour at room temperature. Membranes were washed in TBS-T for 4×10 minutes and in TBS for 1×10-minute wash. Proteins were visualized using Odyssey® infrared imaging system. Protein expression was quantified using Image Studio Lite (Version 5.2) and expression intensities were normalized to a house keeping protein, α-Tubulin or β-actin.

[5] = cited from earlier work
pCREB = assay: Western blot of pCREB in brain regions, chronic cocaine ± 5-MeO-DMT; type: in vivo, Male Wistar rats; settings: for pCREB levels: 24 h
Source text: as §1, §2, §3, §4
SDS-PAGE and Western Blotting—Following equalisation of protein concentrations, 6× sample loading buffer (15% SDS, 15% […], 50% glycerol, 0.01% bromophenol blue, […]) was added to each sample using a dilution factor of 1:5 of the total volumes before boiling at 100° C. for 5 mins. Samples were stored at −20° C. until use. One dimensional sodium-dodecyl-sulphate polyacrylamide gel electrophoresis (SDS-PAGE) was used for protein separation based on molecular weight. The percentage of acrylamide in the resolving or stacking gel was determined by the molecular weight of the protein of interest. […] Protein expression was quantified using Image Studio Lite (Version 5.2) and expression intensities were normalized to a house keeping protein, α-Tubulin or β-actin.

ΔFosB = assay: Western blot of ΔFosB in brain regions, chronic cocaine ± 5-MeO-DMT; type: in vivo, Male Wistar rats
Source text: as §1, §2, §3, §4, §5

FosB = assay: Western blot of FosB in brain regions, chronic cocaine ± 5-MeO-DMT; type: in vivo, Male Wistar rats
Source text: as §1, §2, §3, §4, §5

mGluR5 = assay: Western blot of mGluR5 in brain regions, chronic cocaine ± 5-MeO-DMT; type: in vivo, Male Wistar rats
Source text: as §1
as §2, with “The PFC, hippocampus (Hip) and amygdala (Amyg) were then blunt dissected (FIG. 3A-3D). All regions were frozen in liquid nitrogen and stored at −80° C. until processed.” left out
Determination of protein concentration—a bicinchoninic acid assay (BCA, ThermoFisher) was conducted to determine the total protein concentration in tissue lysates following manufacturer's instructions. […] For tissue lysates a 1:10 dilution was performed with cell lysis buffer to ensure absorbance values lay within the working range established by the standards. […] The plate was covered and incubated for 30 mins at 37° C. before absorbance was read at 562 nm on a plate reader (SpectraMax M3). The absorbance values were used to form a standard curve of known protein concentrations and protein concentration of samples were derived using the equation of the line. […]

BDNF = assay: Western blot of BDNF in brain regions, chronic cocaine ± 5-MeO-DMT; type: in vivo, Male Wistar rats; settings: for BDNF expression: 24 h; for BDNF levels: 120 h
Source text: as §1, §2, §3, §4, §5

[6] = dorsal striatum, 24 h, 5-MeO-DMT alone
[7] = dorsal striatum, 120 h, irrespective of the treatment group
[8] = nucleus accumbens, 120 h, 5-MeO-DMT alone

## COC(=O)[C@H]1[C@@H](OC(=O)c2ccccc2)C[C@@H]2CC[C@H]1N2C.Cl [cocaine, cocaine hydrochloride, reference compound]
G9a [1]
  reduction in G9a expression: 19%

## COc1ccc2[nH]cc(CCN(C)C)c2c1 [5-MeO-DMT, 5-methoxy-N,N-dimethyltryptamine]
[2]
  primary metabolic pathways: deamination by MAO-A and O-demethylation by cytochrome P450 2D6 (CYP2D6)
[3]
  end of effects: 60 to 70 min
  peak of effects: 35 to 40 min
  start of effects: 3 to 4 min
G9a [4]; PFC, 24 h, cocaine+20 mg/kg 5-MeO-DMT relative to saline+vehicle
  G9a expression: significant decrease in G9a expression
G9a [4]; dorsal striatum, 24 h, 20 mg/kg 5-MeO-DMT alone
  G9a expression: increased G9a expression levels
G9a [4]; dorsal striatum, 24 h, cocaine + either concentration of 5-MeO-DMT (10 or 20 mg/kg)
  G9a expression: significantly reduced G9a levels relative to the cocaine+vehicle group
G9a [4]; dorsal striatum, 120 h, 20 mg/kg 5-MeO-DMT alone
  G9a expression: remained significantly elevated
G9a [4]; hippocampus, 5-MeO-DMT alone
  G9a expression: no change in enzyme expression
G9a [4]; hippocampus, 24 h, cocaine+20 mg/kg 5-MeO-DMT
  G9a expression: normalised the cocaine-induced decrease in G9a
[5]; rat brain regions
  blood-brain barrier passage: readily crosses the blood-brain barrier
[5]; throughout the brain
  brain drug concentrations with increase in dose: increased non-proportionally
pCREB; PFC, cocaine+20 mg/kg 5-MeO-DMT relative to saline+20 mg/kg
  pCREB levels: decrease in pCREB
pCREB; PFC, 24 h and 120 h, all treatments
  proportion of pCREB relative to total CREB: no change
pCREB; amygdala, 20 mg/kg 5-MeO-DMT in saline-treated animals
  pCREB levels: increased
pCREB; amygdala, 24 h and 120 h, any of the treatments
  proportion of pCREB: unchanged by any of the treatments
ΔFosB; PFC, 24 h, cocaine alone or 5-MeO-DMT alone
  ΔFosB expression: Neither treatment changes expression alone
ΔFosB; PFC, 24 h, cocaine+10 mg/kg 5-MeO-DMT
  ΔFosB expression: increases expression relative to 10 mg/kg 5-MeO-DMT alone
ΔFosB; PFC, 24 h, cocaine+20 mg/kg 5-MeO-DMT (increase seen with 10 mg/kg)
  ΔFosB expression: not replicated
ΔFosB; amygdala, 24 h, 5-MeO-DMT alone
  ΔFosB expression: no effect
ΔFosB; amygdala, 24 h, cocaine+20 mg/kg 5-MeO-DMT
  ΔFosB expression: normalized levels in the cocaine treated animals comparable to the control group
ΔFosB; amygdala, 120 h, 20 mg/kg 5-MeO-DMT relative to control
  ΔFosB expression: dose-dependent increase
ΔFosB; [6]
  ΔFosB expression: does not regulate the expression
ΔFosB; dorsal striatum, 24 h, cocaine+10 mg/kg 5-MeO-DMT relative to control
  ΔFosB expression: significant increase in ΔFosB expression
ΔFosB; dorsal striatum, 24 h, cocaine+20 mg/kg 5-MeO-DMT
  ΔFosB expression: returns the cocaine-induced increase in ΔFosB to levels comparable with control
ΔFosB; [7]
  ΔFosB expression: no change in expression levels
ΔFosB; nucleus accumbens, 24 h, cocaine+20 mg/kg 5-MeO-DMT
  ΔFosB expression: expression levels remain elevated in the combo group relative to control
ΔFosB; nucleus accumbens, 24 h, saline+10 mg/kg 5-MeO-DMT
  ΔFosB expression: increased
ΔFosB; nucleus accumbens, 24 h, saline+20 mg/kg 5-MeO-DMT
  ΔFosB expression: increased
ΔFosB; [8]
  ΔFosB expression: does not persist to 120 hours
FosB; PFC, 24 h and 120 h, any of the treatments
  FosB expression: unchanged by any of the treatments
FosB; amygdala, 24 h, any treatment
  FosB expression: no change in FosB levels
FosB; amygdala, 120 h, cocaine x 5-MeO-DMT interaction p=0.0353
  FosB expression: no post hoc differences between treatment groups
FosB; [6]
  FosB expression: does not regulate the expression
FosB; [7]
  FosB expression: no change in expression levels
FosB; nucleus accumbens, 24 h, cocaine+10 mg/kg 5-MeO-DMT (1 h post last cocaine)
  FosB expression: increase FosB expression
FosB; nucleus accumbens, 24 h, cocaine+20 mg/kg 5-MeO-DMT (1 h post last cocaine)
  FosB expression: no significant difference in FosB expression levels relative to the saline+vehicle control group
FosB; nucleus accumbens, 24 h, saline+10 mg/kg 5-MeO-DMT single dose
  FosB expression: not 10 mg/kg increasing expression
FosB; nucleus accumbens, 24 h, saline+20 mg/kg 5-MeO-DMT single dose
  FosB expression: increasing expression
FosB; [8]
  FosB expression: does not persist to 120 hours
mGluR5; PFC, 24 h, 20 mg/kg 5-MeO-DMT in saline treated animals
  mGluR5 expression: significant decrease in receptor expression
mGluR5; nucleus accumbens, 5-MeO-DMT, either tested concentration
  mGluR5 expression: no change
BDNF; PFC, cocaine+10 mg/kg 5-MeO-DMT relative to saline+vehicle
  BDNF expression: significant decrease in BDNF expression
BDNF; PFC, cocaine+20 mg/kg 5-MeO-DMT relative to saline+vehicle
  BDNF expression: significant decrease in BDNF expression
BDNF; hippocampus, any of the treatment groups
  BDNF expression: no change in BDNF expression
BDNF; hippocampus, 10 mg/kg 5-MeO-DMT alone
  BDNF levels: no effect alone
BDNF; hippocampus, 20 mg/kg 5-MeO-DMT alone
  BDNF levels: significant decrease in BDNF levels
BDNF; hippocampus, cocaine+10 mg/kg 5-MeO-DMT
  BDNF levels: does not affect the cocaine-induced decrease in expression levels
BDNF; hippocampus, cocaine+20 mg/kg 5-MeO-DMT
  BDNF levels: restores BDNF levels to those seen in the control group
